Patent US20080096967A1, “Formulations for Injection of Catecholic Butanes, Including Ndga Compounds, Into Animals” (priority 2005, published 2008)

Columns and labels:
Beagle dogs = settings: dog, in vivo
Experimental: A single male dog was administered M4N (12.5 mg/mL) in 20% HP-β-CD/50% PEG 300 via IV infusion (10 mL/kg/hour). Increased pressure in the infusion line and test formulation leakage from the syringe occurred. […] Because the observations were considered severe, the animal was considered moribund and scheduled for euthanization.
The dog recovered within 1 hour and 15 minutes of dosing and presented no continued or additional adverse clinical signs.
An additional male and female were dosed at 150 mg/kg and then at 125 mg/kg. […] Both animals recovered within 1 hour of dosing and no additional important clinical signs were subsequently noted.
Two extra (naïve) dogs were added to the study design and dosed at 75 mg/kg/day at an infusion rate of 5 mL/kg/hour, for a total of 12 doses in a 13-day interval. […] Clinical observations included soft feces in the male and frothy white emesis in the female; these findings were infrequent or isolated incidences and are considered unrelated to treatment. […] Both dogs recovered from any noted clinical signs within 1 hour of dosing. […] No other treatment-related observations were noted.

[1] = Stability of M4N formulations at 4° C. and on centrifugation; format: physicochemical
Experimental: All formulations withstand 4° C. for 24 hr and 5 min. centrifugation at 5000 rpm without forming visible precipitates. The formulation containing 50% PEG 300, 20% HP-β-CD, 12.5 mg/mL M4N stock solution withstands 4° C. for at least 4 months. Dilutions of the same stock made in 1:1 or 1:2 dilutions also withstand 4° C. for at least 4 months.

[2] = Solubility of M4N in non-ionic surfactants (Table 21, visual inspection); format: physicochemical
Experimental: A 10 mL solution of M4N at a concentration of about 60 mg/mL in Tween® 20 was made as follows. About 10 mL of Tween® 20 were added to a glass beaker containing a stir bar. The beaker was placed on a magnetic plate and the stir bar was set to stir at medium speed. About 600 mg of M4N were slowly added to the Tween® 20 in the center of the beaker with the aid of a spatula to prevent M4N from sticking to the beaker wall. The M4N/Tween® 20 mixture was stirred for 2 hr or until all M4N had dissolved or was uniformly suspended without any clumps being present. The M4N/Tween® 20 mixture was heated at about 60° C. for about 30 min. (or longer if a larger volume of solution was desired, for example, 1 hr at 60° C. for 500 mL of the M4N/Tween® 20 mixture), or longer as need to ensure complete dissolution of M4N. […] The final M4N/Tween® 20 solution was stored at room temperature and was kept protected from light. If crystals were to form during storage, the M4N/Tween® 20 solution could be heated again at 60° C. for about 1 hr, with stirring, on a hot magnetic plate or until all M4N was dissolved back in solution.
This process may be scaled up or down to obtain the requisite volume or concentration of M4N and the heating temperature may be increased or decreased to achieve dissolution of M4N. Formulations containing M4N in other non-ionic surfactant, ionic surfactants or amphiphilic molecules may be similarly made, such as, for example, by substituting Tween® 20 in the process described above with Tween® 80, other solubilizing agents, and combinations thereof.

Sprague-Dawley rats = assay: 8-Day IV infusion toxicity study in Sprague-Dawley rats; format: in vivo
Experimental: Escalating doses of 0, 100, 150, or 200 mg/kg M4N in 10% HP-β-CD in PEG 300 (6.25 mg/mL) were administered by IV infusion once every four days to male and female Sprague-Dawley rats (3/each sex) at 8 mL/kg/hr. […] […] One male rat was found dead on the first day dosage during administration of the vehicle and one female rat was found dead on day 5 of the study at the end of the infusion of 100 mg/kg of the test material. These deaths were not considered related to the test article because for one rat no test article (only vehicle) was administered and for the other rat, this was a single event with other rats surviving multiple days of dosing at 200 mg/kg/day.

[3] = 200 mg/kg/day, continued daily dosing phase

For `COc1ccc(C[C@@H](C)[C@@H](C)Cc2ccc(OC)c(OC)c2)cc1OC` [Formulation M4N, meso-1,4-bis(3,4-dimethoxyphenyl)-2,3-dimethylbutane], the “clinical signs following dosing” value (Beagle dogs) was “uncoordinated/unbalanced movements and frequent urination”, the “notable post dose observation” value (Beagle dogs) was “single observation of red-brown urine in the female on SD 7” and the “time to recovery after dosing” value (Beagle dogs) was 1 h and 0.25 h. The “withstand 4° C.” value ([1]; 1:1 or 1:2 dilutions of the 50% PEG 300, 20% HP-β-CD, 12.5 mg/mL M4N stock) was “at least 4 months”, the “withstands 4° C.” value ([1]; 50% PEG 300, 20% HP-β-CD, 12.5 mg/mL M4N stock solution) was “at least 4 months” and the “Stability at Room Temperature” value ([2]; 50% Tween ® 20, 50% PEG 400, M4N 30 mg/mL) was over 3 days. The “Dissolution After Heating” value ([2]; 50% Tween ® 20, 50% PEG 400, M4N 30 mg/mL, heating at 65° C.) was “Y at 65 °C”, the “Stability at Room Temperature” value ([2]; 50% Tween ® 20, 50% PEG 400, M4N 40 mg/mL) was over 3 days and the “Dissolution After Heating” value ([2]; 50% Tween ® 20, 50% PEG 400, M4N 40 mg/mL, heating at 65° C.) was “Y at 65 °C”. For the same molecule, the “Stability at Room Temperature” value ([2]; 50% Tween ® 20, 50% PEG 400, M4N 50 mg/mL) was over 3 days, the “Dissolution After Heating” value ([2]; 50% Tween ® 20, 50% PEG 400, M4N 50 mg/mL, heating at 65° C.) was “Y at 65 °C” and the “Stability at Room Temperature” value ([2]; 50% Tween ® 20, 50% PEG 400, M4N 60 mg/mL) was over 3 days. For the same molecule, the “Dissolution After Heating” value ([2]; 50% Tween ® 20, 50% PEG 400, M4N 60 mg/mL, heating at 65° C.) was “Y at 65 °C”, the “stable at room temperature” value ([2]; 50% Tween® 20 and 50% PEG 400, after cooling) was “more than 3 days” and the “Stability at Room Temperature” value ([2]; Tween ® 20 100% (v/v), M4N 1 mg/mL) was over 7 days. For the same molecule, the “Stability at Room Temperature” value ([2]; Tween ® 20 100% (v/v), M4N 10 mg/mL) was over 7 days, the “Dissolution After Heating” value ([2]; Tween ® 20 100% (v/v), M4N 10 mg/mL, heating at 50° C.) was “Y at 50 °C” and the “Stability at Room Temperature” value ([2]; Tween ® 20 100% (v/v), M4N 20 mg/mL) was over 7 days. For the same molecule, the “Dissolution After Heating” value ([2]; Tween ® 20 100% (v/v), M4N 20 mg/mL, heating at 50° C.) was “Y at 50 °C”, the “Stability at Room Temperature” value ([2]; Tween ® 20 100% (v/v), M4N 40 mg/mL) was under 3 days and the “Dissolution After Heating” value ([2]; Tween ® 20 100% (v/v), M4N 40 mg/mL, heating at 50° C.) was “Y at 50 °C”. The “Stability at Room Temperature” value ([2]; Tween ® 20 100% (v/v), M4N 60 mg/mL) was under 3 days, the “Dissolution After Heating” value ([2]; Tween ® 20 100% (v/v), M4N 60 mg/mL, heating at 50° C.) was “Y at 50 °C” and the “Dissolution After Heating” value ([2]; Tween ® 20 100% (v/v), M4N 80 mg/mL, heating at 50° C.) was “Y at 50 °C”. The “Dissolution After Heating” value ([2]; Tween ® 20 100% (v/v), M4N 100 mg/mL, heating at 50° C.) was “Y at 50 °C”, the “Stability at Room Temperature” value ([2]; Tween ® 80 100% (v/v), M4N 1 mg/mL) was over 3 days and the “Stability at Room Temperature” value ([2]; Tween ® 80 100% (v/v), M4N 10 mg/mL) was over 3 days. For the same molecule, the “Dissolution After Heating” value ([2]; Tween ® 80 100% (v/v), M4N 10 mg/mL, heating at 50° C.) was “Y at 50 °C”, the “Stability at Room Temperature” value ([2]; Tween ® 80 100% (v/v), M4N 50 mg/mL) was under 1 days and the “Dissolution After Heating” value ([2]; Tween ® 80 100% (v/v), M4N 50 mg/mL, heating at 50° C.) was “Y at 50 °C”. The “stable at room temperature” value ([2]; Tween® 20, M4N 1 mg/mL) was “more than 7 days”, the “stable at room temperature” value ([2]; Tween® 20, M4N 10 mg/mL and 20 mg/mL) was “more than 7 days” and the “stable at room temperature” value ([2]; Tween® 20, M4N 40 mg/mL and 80 mg/mL) was “less than 3 days”. The solution upon cooling ([2]; Tween® 20, M4N 80 mg/mL and 100 mg/mL) was “becoming insoluble upon cooling”, the “concentrations at which M4N remained in solution after cooling” value ([2]; Tween® 20, dissolved at 50° C.) was “up to 60 mg/mL” and the “stable at room temperature” value ([2]; Tween® 80, M4N 1 mg/mL) was “more than 3 days”. The “stable at room temperature” value ([2]; Tween® 80, M4N 10 mg/mL) was “more than 3 days”, the “stable at room temperature” value ([2]; Tween® 80, M4N 50 mg/mL) was “less than 1 day” and the “concentrations at which M4N remained in solution after cooling” value ([2]; Tween® 80, dissolved at 50° C.) was “up to 50 mg/mL”. For the same molecule, the “clinical observations: ptosis and hyperactivity” value (Sprague-Dawley rats; [3]) was “ptosis and hyperactivity occurred in one male and one female rat”, the “clinical observations: tremors” value (Sprague-Dawley rats; [3]) was “tremors did occur in one male and one female rat” and the mortality (Sprague-Dawley rats; 100, 150 or 200 mg/kg M4N in 10% HP-β-CD in PEG 300 (6.25 mg/mL), IV infusion 8 mL/kg/hr) was “No obvious mortality related to M4N occurred”. For the same molecule, the “doses that appeared to be tolerated” value (Sprague-Dawley rats; for up to eight consecutive days) was at most 200 mg/kg/day and the body weight (Sprague-Dawley rats; male and female rats) was “gained weight throughout the study”.
